Assay results published in patent publication US10159640B2, “Prebiotic oral care compositions containing amino acids” (COLGATE-PALMOLIVE COMPANY, priority 2013, dated 2018).
Residues, ends and D or L forms follow the SMILES beside them.

How the values were obtained:
Type in all cases: cell-based
Streptococcus mitis = assay: Metabolic activity, Biolog phenotype microarray; conditions: control without dipeptide = 1
Protocol: (§1) The extent of metabolic activity of the tested bacteria in the presence of the above-mentioned dipeptides after 24 hours and 48 hours was investigated through a high throughput phenotype microarray system (PM) for microbial cells (Biolog Inc.). Each PM can contain up to 95 different biochemical compounds (e.g. di-peptides) that may act as substrates for bacteria as well as one negative control, not containing the substrates. Microarray plates were used in which the different wells of each plate were pre-loaded (by the manufacturer, Biolog Inc.) with different di-peptides to be tested. Each bacterial species was tested using a separate microarray plate. Thus, a single bacterial species was tested with a variety of dipeptides on each particular plate. The microarrays are based on redox technology, using cell respiration as a universal reporter. Active cell respiration results in the reduction of a tetrazolium dye and in the formation of a strong color—for example, when using the tetrazolium dye “Biolog Redox Dye Mix D”, the color changes from transparent/colourless to purple when the dye is reduced. The observation of this color change indicates which of the substrates improve the metabolic activity and health of the cells. Each bacterial species was collected from blood agar plates (incubated for 48 hours anaerobically at 37° C.) and transferred to an IF-0 Base inoculation fluid (Biolog Inc.), which is a nutritionally poor medium. The resulting cell suspension was adjusted to a transmittance of 42% (relative to the transmittance of the base inoculation fluid with no bacterial species present) at 492 nm using a BioRad SmartSpec 3000 Photometer (the adjustment being effected by adding either further inoculation fluid or further bacteria until the transmittance of 42% was achieved). A 1:5 dilution of this suspension was prepared by mixing 3 mL of the 42% transmittance cell suspension with 15 mL of an inoculation fluid (which inoculation fluid was formed by mixing 11.6 mL sterile water, 62.5 mL IF-0 base inoculation fluid and 0.9 mL of the tetrazolium dye “Biolog Redox Dye mix D”), resulting in a final cell density which was equal to 85% transmittance using a BioRad SmartSpec 3000 Photometer. 680 μL of a 2M sodium succinate/200 μM ferric citrate solution in distilled water was added to 68 mL of the 85% transmittance cell suspension and 100 μL of this mixture was added to each well (the various di-peptides being already present in powder form in the relevant wells of the plate as obtained from the supplier i.e. Biolog Inc.). All plates were incubated in an anaerobic atmosphere at 37° C. Color changes were measured spectrophotometrically at 492 nm (Thermo Scientific Multiskan Ascent) at 24 hrs and 48 hrs using the same plate at both time points. […] After 24 hrs and 48 hrs under continuous shaking in a Multiscan microplate reader, the optical density (OD) of the synthetic medium at 24 hours and 48 hours was measured (using the microplate reader) at a wavelength of 492 nm for each combination of bacterium/dipeptide, and for each of their respective controls (i.e. which contained the particular bacterium but no dipeptide). […] The experiment was carried out three times for each combination of bacterium with dipeptide, with each repeat being carried out on a different day (thus providing three biological replicas). The controls were also carried out three times, as above. The values shown are the average (mean) of the three single values obtained (as detailed above) for each combination of bacterium with dipeptide, at 24 hrs and at 48 hrs.

Streptococcus mutans = assay: Metabolic activity, Biolog phenotype microarray; conditions: control without dipeptide = 1
Protocol: as §1

Streptococcus sobrinus = assay: Metabolic activity, Biolog phenotype microarray; conditions: control without dipeptide = 1
Protocol: as §1

Streptococcus sanguinis = assay: Metabolic activity, Biolog phenotype microarray; conditions: control without dipeptide = 1
Protocol: as §1

Actinomyces naeslundii = assay: Metabolic activity, Biolog phenotype microarray; conditions: control without dipeptide = 1
Protocol: as §1

Fusobacterium nucleatum = assay: Metabolic activity, Biolog phenotype microarray; conditions: control without dipeptide = 1
Protocol: as §1

Prevotella intermedia = assay: Metabolic activity, Biolog phenotype microarray; conditions: control without dipeptide = 1
Protocol: as §1

Capnocytophaga sputigena = assay: Metabolic activity, Biolog phenotype microarray; conditions: control without dipeptide = 1
Protocol: as §1

Porphyromonas gingivalis = assay: Metabolic activity, Biolog phenotype microarray; conditions: control without dipeptide = 1
Protocol: as §1

Actinomyces viscosus = assay: Metabolic activity, Biolog phenotype microarray; conditions: control without dipeptide = 1
Protocol: as §1

Veillonella parvula = assay: Metabolic activity, Biolog phenotype microarray; conditions: control without dipeptide = 1
Protocol: as §1

[1] = system: Aggregatibacter actinomycetemcomitans; assay: Metabolic activity, Biolog phenotype microarray; conditions: control without dipeptide = 1
Protocol: as §1

Tannerella forsythia = assay: Metabolic activity, Biolog phenotype microarray; conditions: control without dipeptide = 1
Protocol: as §1

Streptococcus salivarius = assay: Metabolic activity, Biolog phenotype microarray; conditions: control without dipeptide = 1
Protocol: as §1

Streptococcus gordonii = assay: Metabolic activity, Biolog phenotype microarray; conditions: control without dipeptide = 1
Protocol: as §1

[2] = system: beneficial oral bacteria and pathogenic oral bacteria; assay: Metabolic activity, whole panel: prebiotic effect; conditions: for prebiotic effects (metabolic activity): threshold value of 2
Protocol: Substrates that were able to increase the metabolic activity of at least one of the above beneficial bacteria while not or only minimally increasing the growth of the pathogenic bacteria are considered to be prebiotic substrates. The extent of metabolic activity of the tested bacteria in the presence of the above-mentioned dipeptides after 24 hours and 48 hours was investigated through a high throughput phenotype microarray system (PM) for microbial cells (Biolog Inc.). Each PM can contain up to 95 different biochemical compounds (e.g. di-peptides) that may act as substrates for bacteria as well as one negative control, not containing the substrates. Microarray plates were used in which the different wells of each plate were pre-loaded (by the manufacturer, Biolog Inc.) with different di-peptides to be tested. Each bacterial species was tested using a separate microarray plate. Thus, a single bacterial species was tested with a variety of dipeptides on each particular plate. The microarrays are based on redox technology, using cell respiration as a universal reporter. Active cell respiration results in the reduction of a tetrazolium dye and in the formation of a strong color—for example, when using the tetrazolium dye “Biolog Redox Dye Mix D”, the color changes from transparent/colourless to purple when the dye is reduced. The observation of this color change indicates which of the substrates improve the metabolic activity and health of the cells. Each bacterial species was collected from blood agar plates (incubated for 48 hours anaerobically at 37° C.) and transferred to an IF-0 Base inoculation fluid (Biolog Inc.), which is a nutritionally poor medium. The resulting cell suspension was adjusted to a transmittance of 42% (relative to the transmittance of the base inoculation fluid with no bacterial species present) at 492 nm using a BioRad SmartSpec 3000 Photometer (the adjustment being effected by adding either further inoculation fluid or further bacteria until the transmittance of 42% was achieved). A 1:5 dilution of this suspension was prepared by mixing 3 mL of the 42% transmittance cell suspension with 15 mL of an inoculation fluid (which inoculation fluid was formed by mixing 11.6 mL sterile water, 62.5 mL IF-0 base inoculation fluid and 0.9 mL of the tetrazolium dye “Biolog Redox Dye mix D”), resulting in a final cell density which was equal to 85% transmittance using a BioRad SmartSpec 3000 Photometer. 680 μL of a 2M sodium succinate/200 μM ferric citrate solution in distilled water was added to 68 mL of the 85% transmittance cell suspension and 100 μL of this mixture was added to each well (the various di-peptides being already present in powder form in the relevant wells of the plate as obtained from the supplier i.e. Biolog Inc.). All plates were incubated in an anaerobic atmosphere at 37° C. Color changes were measured spectrophotometrically at 492 nm (Thermo Scientific Multiskan Ascent) at 24 hrs and 48 hrs using the same plate at both time points. […] After 24 hrs and 48 hrs under continuous shaking in a Multiscan microplate reader, the optical density (OD) of the synthetic medium at 24 hours and 48 hours was measured (using the microplate reader) at a wavelength of 492 nm for each combination of bacterium/dipeptide, and for each of their respective controls (i.e. which contained the particular bacterium but no dipeptide). […] The experiment was carried out three times for each combination of bacterium with dipeptide, with each repeat being carried out on a different day (thus providing three biological replicas). The controls were also carried out three times, as above. The values shown are the average (mean) of the three single values obtained (as detailed above) for each combination of bacterium with dipeptide, at 24 hrs and at 48 hrs. […] This value was selected in order to exclude low-stimulating metabolites and avoid false positive results.

Molecule	metabolic activity: OD 492 nm divided by OD of control (Streptococcus mitis; 24 hrs)	metabolic activity: OD 492 nm divided by OD of control (Streptococcus mitis; 48 hrs)	metabolic activity: OD 492 nm divided by OD of control (Streptococcus mutans; 24 hrs)	metabolic activity: OD 492 nm divided by OD of control (Streptococcus mutans; 48 hrs)	metabolic activity: OD 492 nm divided by OD of control (Streptococcus sobrinus; 24 hrs)	metabolic activity: OD 492 nm divided by OD of control (Streptococcus sobrinus; 48 hrs)	metabolic activity: OD 492 nm divided by OD of control (Streptococcus sanguinis; 24 hrs)	metabolic activity: OD 492 nm divided by OD of control (Streptococcus sanguinis; 48 hrs)	metabolic activity: OD 492 nm divided by OD of control (Actinomyces naeslundii; 24 hrs)	metabolic activity: OD 492 nm divided by OD of control (Actinomyces naeslundii; 48 hrs)	metabolic activity: OD 492 nm divided by OD of control (Fusobacterium nucleatum; 24 hrs)	metabolic activity: OD 492 nm divided by OD of control (Fusobacterium nucleatum; 48 hrs)	metabolic activity: OD 492 nm divided by OD of control (Prevotella intermedia; 24 hrs)	metabolic activity: OD 492 nm divided by OD of control (Prevotella intermedia; 48 hrs)	metabolic activity: OD 492 nm divided by OD of control (Capnocytophaga sputigena; 24 hrs)	metabolic activity: OD 492 nm divided by OD of control (Capnocytophaga sputigena; 48 hrs)	metabolic activity: OD 492 nm divided by OD of control (Porphyromonas gingivalis; 24 hrs)	metabolic activity: OD 492 nm divided by OD of control (Porphyromonas gingivalis; 48 hrs)	metabolic activity: OD 492 nm divided by OD of control (Actinomyces viscosus; 24 hrs)	metabolic activity: OD 492 nm divided by OD of control (Actinomyces viscosus; 48 hrs)	other results
Ser-Gln	1.0595	1.5980	1.2511	1.7642	1.1504	1.6280	1.1901	1.6298	1.2183	1.5857	1.2502	1.6185	1.2382	1.3661	2.2409	1.6963	1.1453	1.4999	1.6173	2.0308	metabolic activity: OD 492 nm divided by OD of control (Veillonella parvula; 24 hrs): 0.8812; metabolic activity: OD 492 nm divided by OD of control (Veillonella parvula; 48 hrs): 0.8706; metabolic activity: OD 492 nm divided by OD of control ([1]; 24 hrs): 0.9996; metabolic activity: OD 492 nm divided by OD of control ([1]; 48 hrs): 1.1574; metabolic activity: OD 492 nm divided by OD of control (Tannerella forsythia; 24 hrs): 1.1929; metabolic activity: OD 492 nm divided by OD of control (Tannerella forsythia; 48 hrs): 1.4647; metabolic activity: OD 492 nm divided by OD of control (Streptococcus salivarius; 24 hrs): 1.1847; metabolic activity: OD 492 nm divided by OD of control (Streptococcus salivarius; 48 hrs): 1.6185; metabolic activity: OD 492 nm divided by OD of control (Streptococcus gordonii; 24 hrs): 0.9754; metabolic activity: OD 492 nm divided by OD of control (Streptococcus gordonii; 48 hrs): 1.4584; prebiotic effects (metabolic activity) ([2]; 24 hrs): exhibited prebiotic effects; prebiotic effects (metabolic activity) ([2]; 48 hrs): exhibited prebiotic effects
CC(C)C(NC(=O)C(N)CO)C(=O)O (stereo not drawn) [Ser-Val] (H-Ser-Val-OH; configuration not given here)	1.4166	1.8051	1.4622	2.0721	1.3133	1.8354	1.2030	1.5280	1.4073	1.7338	1.3741	1.5983	1.4709	1.7953	1.4541	1.4933	1.3880	1.9267	2.1120	2.4349	metabolic activity: OD 492 nm divided by OD of control (Veillonella parvula; 24 hrs): 1.2776; metabolic activity: OD 492 nm divided by OD of control (Veillonella parvula; 48 hrs): 1.3095; metabolic activity: OD 492 nm divided by OD of control ([1]; 24 hrs): 1.4527; metabolic activity: OD 492 nm divided by OD of control ([1]; 48 hrs): 1.9697; metabolic activity: OD 492 nm divided by OD of control (Tannerella forsythia; 24 hrs): 1.2842; metabolic activity: OD 492 nm divided by OD of control (Tannerella forsythia; 48 hrs): 1.7260; metabolic activity: OD 492 nm divided by OD of control (Streptococcus salivarius; 24 hrs): 1.3826; metabolic activity: OD 492 nm divided by OD of control (Streptococcus salivarius; 48 hrs): 1.9626; metabolic activity: OD 492 nm divided by OD of control (Streptococcus gordonii; 24 hrs): 1.4328; metabolic activity: OD 492 nm divided by OD of control (Streptococcus gordonii; 48 hrs): 1.7640; prebiotic effects (metabolic activity) ([2]; 24 hrs): exhibited prebiotic effects; speed of metabolism by beneficial versus pathogenic bacteria ([2]; value of 2 reached at 24 hrs for beneficial but not pathogenic bacteria): metabolized faster by the beneficial bacteria than by the pathogenic bacteria
